± gives the expanded uncertainty stated by the source.
Key:
[1] = 298.15 K; 101.33 kPa; Liquid; Vibrating tube method
[2] = refractive index (Na D-line) (dimensionless); settings: 298.15 K; 101.33 kPa; Liquid; Standard Abbe refractometry

| Structure (SMILES) | mass density [1] [kg/m3] | refractive index [2] |
| --- | --- | --- |
| OCCCO [propan-1,3-diol] | 1049.68 ± 0.14 | 1.43851 ± 0.00032 |
| CC(C)O [propan-2-ol] | 781.18 ± 0.15 | 1.3752 ± 0.00032 |
| O [water] |  | 1.33237 ± 0.00032 |

Reference: the NIST ThermoML archive (doi:10.1016/j.fluid.2014.02.006)
